In US12209102B2, “Heterocyclic compounds and uses thereof” (Kumquat Biosciences Inc., priority 2022, dated 2025):

Tests used:
Format in all cases: biochemical
K-Ras G12D = target: T1, K-Ras G12D (Homo sapiens, UniProt P01116, G12D); experiment: HTRF resonance energy transfer assay, K-Ras G12D / SOS1 interaction; settings: HTRF assay of Example 5; read-out: IC50 against K-Ras G12D
T1 construct: made in house; host or cells: E. coli BL21 (DE3)
Source text: This assay can be also used to assess a selective inhibition or reduction of signaling output of a mutant Ras protein relative to a wildtype, or relative to a different mutant Ras protein. For example, the equilibrium interaction of wildtype Kras or K-Ras mutant (e.g., wildtype or a mutant thereof) with SOS1 (e.g., hSOS1) can be assessed as a proxy or an indication for a subject compound's ability to bind and inhibit Ras protein. HTRF assay detects from (i) a fluorescence resonance energy transfer (FRET) donor (e.g., antiGST-Europium) that is bound to GST-tagged K-Ras mutant to (ii) a FRET acceptor (e.g., anti-6His-XL665) bound to a His-tagged hSOS1.
The assay buffer can contain˜5 mM HEPES pH 7.4, ˜150 mM NaCl, ˜ 1 mM DTT, 0.05% BSA and 0.0025%(v/v) Igepal. A Ras working solution is prepared in an assay buffer containing typically a suitable amount of the protein construct (e.g., GST-tagged K-Ras mutant) and the FRET donor (e.g., antiGST-Eu(K) from Cisbio, France). A SOS1 working solution is prepared in an assay buffer containing suitable amount of the protein construct (e.g., His-hSOS1) and the FRET acceptor (e.g., anti-6His-XL665 from Cisbio, France). A suitable amount of the protein construct will depend on the range of activity or range of IC50 values being detected or under investigation. For detecting IC50 within a range of 500 nM, the protein constructs of the same range of molarity can be utilized.
A fixed volume of DMSO with or without test compound is transferred into a 384-well plate. Ras working solution is added to all wells of the test plate. SOS1 working solution is added to all wells except for those that are subsequently filled the inhibitor control solution. Upon incubation for about 10 minutes or longer, the fluorescence is measured with a M1000Pro plate reader (Tecan) using HTRF detection (excitation 337 nm, emission 1: 620 nm, emission 2: 665 nm). Compounds are tested in duplicates at different concentrations (for example, 10 μM, 2.5 μM, 0.63 μM, 0.16 μM, 0.04 μM, 0.01 μM test compound). The ratiometric data (i.e., emission 2 divided by emission 1) is used to calculate IC50 values against Ras using GraphPad Prism (GraphPad software). Following this general procedure, samples were tested with or without a subject compound disclosed herein including compounds exemplified in Table 1 to assess their abilities to inhibit a K-Ras mutant relative to another mutant or WT. Signaling output measured in terms of IC50 values can be obtained, a ratio of IC50 against one mutant relative to another mutant can be calculated. For instance, a selective reduction of K-Ras G12D signaling output can be evidenced by a ratio greater than one. In particular, a selective reduction of K-Ras G12D signaling relative to K-Ras WT signaling is evidenced as the ratio of IC50 (against K-Ras WT) to IC50 (against K-Ras G12D) is greater than 1.

K-Ras WT = target: T2, K-Ras WT (Homo sapiens, UniProt P01116); experiment: HTRF resonance energy transfer assay, K-Ras WT / SOS1 interaction; settings: HTRF assay of Example 5; read-out: IC50 against K-Ras WT
T2 construct: made in house; host or cells: E. coli BL21 (DE3)
In short: (§1)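 Buffer about 5 mM HEPES pH 7.4 with ~150 mM NaCl, ~1 mM DTT, 0.05% BSA, 0.0025% (v/v) Igepal. Protein constructs used at molarity matching the IC50 range studied (e.g. ~500 nM). FRET between tagged K-Ras and hSOS1 measured after short incubation.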

K-Ras G12S = target: T3, K-Ras G12S (Homo sapiens, UniProt P01116, G12S); experiment: HTRF resonance energy transfer assay, K-Ras G12S / SOS1 interaction; settings: HTRF assay of Example 5; read-out: IC50 against K-Ras G12S
T3 construct: made in house; host or cells: E. coli BL21 (DE3)
In short: as §1

K-Ras G12V = target: T4, K-Ras G12V (Homo sapiens, UniProt P01116, G12V); experiment: HTRF resonance energy transfer assay, K-Ras G12V / SOS1 interaction; settings: HTRF assay of Example 5; read-out: IC50 against K-Ras G12V
T4 construct: made in house; host or cells: E. coli BL21 (DE3)
In short: as §1

Measured: IC50

T4 sequence (P01116 1-188 isoform P01116-2 G12V): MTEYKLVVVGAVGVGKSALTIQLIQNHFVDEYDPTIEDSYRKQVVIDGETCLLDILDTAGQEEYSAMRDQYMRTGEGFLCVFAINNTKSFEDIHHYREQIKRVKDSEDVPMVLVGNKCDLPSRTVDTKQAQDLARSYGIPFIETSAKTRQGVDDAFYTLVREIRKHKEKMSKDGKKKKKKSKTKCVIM
T2 sequence (P01116 1-188 isoform P01116-2): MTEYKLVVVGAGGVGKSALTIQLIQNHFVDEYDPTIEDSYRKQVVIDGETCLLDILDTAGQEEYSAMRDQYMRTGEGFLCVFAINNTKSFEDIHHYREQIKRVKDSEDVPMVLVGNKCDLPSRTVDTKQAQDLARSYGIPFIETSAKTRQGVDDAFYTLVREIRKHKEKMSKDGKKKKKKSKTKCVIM
T1 sequence (P01116 1-188 isoform P01116-2 G12D): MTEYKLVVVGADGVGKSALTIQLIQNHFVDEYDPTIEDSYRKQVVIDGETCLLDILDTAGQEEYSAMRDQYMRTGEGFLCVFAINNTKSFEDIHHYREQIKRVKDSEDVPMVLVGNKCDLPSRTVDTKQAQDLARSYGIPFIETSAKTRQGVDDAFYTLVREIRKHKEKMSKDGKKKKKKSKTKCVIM
T3 sequence (P01116 1-188 isoform P01116-2 G12S): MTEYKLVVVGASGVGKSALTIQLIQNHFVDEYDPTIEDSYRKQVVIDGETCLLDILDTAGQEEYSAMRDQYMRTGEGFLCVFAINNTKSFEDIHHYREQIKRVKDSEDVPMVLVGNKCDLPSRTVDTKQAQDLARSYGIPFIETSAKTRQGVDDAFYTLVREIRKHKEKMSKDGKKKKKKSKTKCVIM

N#Cc1c(N)sc2c(F)ccc(-c3c(Cl)c4c5c(nc(OC[C@@]67CCCN6C[C@H](F)C7)nc5c3F)N(CC(F)F)C(CO)CO4)c12 (stereo partly drawn) [Compound 840, 2-amino-4-(8-chloro-4-(2,2-difluoroethyl)-10-fluoro-2-(((2R,7aS)-2-fluorotetrahydro-1H-pyrrolizin-7a(5H)-yl)methoxy)-5-(hydroxymethyl)-5,6-dihydro-4H-[1,4]oxazepino[5,6,7-de]quinazolin-9-yl)-7-fluorobenzo[b]thiophene-3-carbonitrile]
< 100 nM: all assays above

C#C[C@H]1COc2c(Cl)c(-c3ccc(F)c4sc(N)c(C#N)c34)c(F)c3nc(OC[C@@]45CCCN4C[C@H](F)C5)nc(c23)N1C1CCOC1 (stereo partly drawn) [Compound 843, 2-amino-4-((5S)-8-chloro-5-ethynyl-10-fluoro-2-(((2R,7aS)-2-fluorotetrahydro-1H-pyrrolizin-7a(5H)-yl)methoxy)-4-(tetrahydrofuran-3-yl)-5,6-dihydro-4H-[1,4]oxazepino[5,6,7-de]quinazolin-9-yl)-7-fluorobenzo[b]thiophene-3-carbonitrile]
< 100 nM: all assays above

CC(O)C1COc2c(Cl)c(-c3ccc(F)c4sc(N)c(C#N)c34)c(F)c3nc(OC[C@@]45CCCN4C[C@H](F)C5)nc(c23)N1CC1CNC1 (stereo partly drawn) [Compound 848, 2-amino-4-(4-(azetidin-3-ylmethyl)-8-chloro-10-fluoro-2-(((2R,7aS)-2-fluorotetrahydro-1H-pyrrolizin-7a(5H)-yl)methoxy)-5-(1-hydroxyethyl)-5,6-dihydro-4H-[1,4]oxazepino[5,6,7-de]quinazolin-9-yl)-7-fluorobenzo[b]thiophene-3-carbonitrile]
< 100 nM: all assays above

C[C@H](Oc1nc2c3c(c(Cl)c(-c4ccc(F)c5sc(N)c(C#N)c45)c(F)c3n1)OCCN2C1CC2(CNC2)C1)[C@@H]1CCCN1C [Compound 856, 2-amino-4-(8-chloro-10-fluoro-2-((S)-1-((S)-1-methylpyrrolidin-2-yl)ethoxy)-4-(2-azaspiro[3.3]heptan-6-yl)-5,6-dihydro-4H-[1,4]oxazepino[5,6,7-de]quinazolin-9-yl)-7-fluorobenzo[b]thiophene-3-carbonitrile]
< 100 nM: all assays above

N#Cc1c(N)sc2c(F)ccc(-c3c(Cl)c4c5c(nc(OC[C@@]67CCCN6C[C@H](F)C7)nc5c3F)N([C@H]3CCNC3)CCO4)c12 [Compound 858, 2-amino-4-(8-chloro-10-fluoro-2-(((2R,7aS)-2-fluorotetrahydro-1H-pyrrolizin-7a(5H)-yl)methoxy)-4-((S)-pyrrolidin-3-yl)-5,6-dihydro-4H-[1,4]oxazepino[5,6,7-de]quinazolin-9-yl)-7-fluorobenzo[b]thiophene-3-carbonitrile]
< 100 nM: all assays above

Nc1nc2c(-c3c(Cl)c4c5c(nc(OC[C@@]67CCCN6C[C@H](F)C7)nc5c3F)N(C3CCNCC3)CCO4)ccc(F)c2s1 [Compound 898, 4-(8-chloro-10-fluoro-2-(((2R,7aS)-2-fluorotetrahydro-1H-pyrrolizin-7a(5H)-yl)methoxy)-4-(piperidin-4-yl)-5,6-dihydro-4H-[1,4]oxazepino[5,6,7-de]quinazolin-9-yl)-7-fluorobenzo[d]thiazol-2-amine]
< 100 nM: all assays above

CN(CCCN1CCOc2c(Cl)c(-c3ccc(F)c4sc(N)c(C#N)c34)c(F)c3nc(OC[C@@]45CCCN4C[C@H](F)C5)nc1c23)C(=O)[C@H]1CN1 [Compound 908, (2R)-N-(3-(9-(2-amino-3-cyano-7-fluorobenzo[b]thiophen-4-yl)-8-chloro-10-fluoro-2-(((2R,7aS)-2-fluorotetrahydro-1H-pyrrolizin-7a(5H)-yl)methoxy)-5,6-dihydro-4H-[1,4]oxazepino[5,6,7-de]quinazolin-4-yl)propyl)-N-methylaziridine-2-carboxamide]
< 100 nM: all assays above

N#Cc1c(N)sc2c(F)ccc(-c3c(Cl)c4c5c(nc(OC[C@@]67CCCN6C[C@H](F)C7)nc5c3F)N(C3CCOC3)C(C3(C#N)CC3)CO4)c12 (stereo partly drawn) [Compound 913, 2-amino-4-(8-chloro-5-(1-cyanocyclopropyl)-10-fluoro-2-(((2R,7aS)-2-fluorotetrahydro-1H-pyrrolizin-7a(5H)-yl)methoxy)-4-(tetrahydrofuran-3-yl)-5,6-dihydro-4H-[1,4]oxazepino[5,6,7-de]quinazolin-9-yl)-7-fluorobenzo[b]thiophene-3-carbonitrile]
< 100 nM: all assays above

CNCCCN1c2nc(OC[C@@]34CCCN3C[C@H](F)C4)nc3c(F)c(-c4ccc(F)c5sc(N)c(C#N)c45)c(Cl)c(c23)OCC1CC#N (stereo partly drawn) [Compound 928, 2-amino-4-(8-chloro-5-(cyanomethyl)-10-fluoro-2-(((2R,7aS)-2-fluorotetrahydro-1H-pyrrolizin-7a(5H)-yl)methoxy)-4-(3-(methylamino)propyl)-5,6-dihydro-4H-[1,4]oxazepino[5,6,7-de]quinazolin-9-yl)-7-fluorobenzo[b]thiophene-3-carbonitrile]
< 100 nM: all assays above

N#Cc1c(N)sc2c(F)ccc(-c3c(Cl)c4c5c(nc(OC[C@@]67CCCN6C[C@H](F)C7)nc5c3F)N(C3CCCCN(C(=O)C5CN5)C3)CCO4)c12 (stereo partly drawn) [Compound 934, 2-amino-4-(4-(1-(aziridine-2-carbonyl)azepan-3-yl)-8-chloro-10-fluoro-2-(((2R,7aS)-2-fluorotetrahydro-1H-pyrrolizin-7a(5H)-yl)methoxy)-5,6-dihydro-4H-[1,4]oxazepino[5,6,7-de]quinazolin-9-yl)-7-fluorobenzo[b]thiophene-3-carbonitrile]
< 100 nM: all assays above

C#Cc1c(F)ccc2cc(O)cc(-c3nc4c5c(nc(OC[C@@]67CCCN6C[C@H](F)C7)nc5c3F)N(C3CCNC3)CCO4)c12 (stereo partly drawn) [Compound 939, 5-ethynyl-6-fluoro-4-(4-fluoro-2-(((2R,7aS)-2-fluorotetrahydro-1H-pyrrolizin-7a(5H)-yl)methoxy)-10-(pyrrolidin-3-yl)-9,10-dihydro-8H-7-oxa-1,3,6,10-tetraazacyclohepta[de]naphthalen-5-yl)naphthalen-2-ol]
< 100 nM: all assays above

CC1Oc2c(Cl)c(-c3ccc(F)c4sc(N)c(C#N)c34)c(F)c3nc(OC[C@@]45CCCN4C[C@H](F)C5)nc(c23)N(CC(F)F)C1CC#N (stereo partly drawn) [Compound 968, 2-amino-4-(8-chloro-5-(cyanomethyl)-4-(2,2-difluoroethyl)-10-fluoro-2-(((2R,7aS)-2-fluorotetrahydro-1H-pyrrolizin-7a(5H)-yl)methoxy)-6-methyl-5,6-dihydro-4H-[1,4]oxazepino[5,6,7-de]quinazolin-9-yl)-7-fluorobenzo[b]thiophene-3-carbonitrile]
< 100 nM: all assays above
